For series [1], the system named is carbachol-induced contractions of urinary bladder smooth muscle strips. Briefly: Antimuscarinic activity on bladder smooth muscle strips (carbachol-induced contractions). The format is cell-based, guinea pigs. As to conditions: Cavia porcellus, read-out: KB for inhibition of carbachol-induced contractions. An excerpt:
Conclusions: Trospium had slightly higher affinity for human muscarinic receptors than the reference compounds. The therapeutic activity of anti-muscarinic drugs in overactive human bladders are usually considered to be related to affinity for M-2/M-3 receptors, while the side effect xerostomia (dry mouth) is due mainly, but not exclusively, to inhibition of M-1 receptors in salivary glands. • 2. Functional Characterization of Antimuscarinic and Antispasmodic Activities on Bladder Smooth Muscle Strips. Methods: Experiments have now been performed using methods described by Kachur et al, J Pharmacol Exp Ther. 1988, 247: 867-872 and Noronha-Blob et al. J Pharmacol Exp Ther 256: 562-567. Strips of tissue (approximately 10 mm long and 1.5 mm wide) were removed from the urinary bladder of male guinea pigs. The tissues were suspended in an oxygenated buffer of the following composition, in mM: NaCl 133; KCl 4.7; CaCl2 2.5; MgSO4 0.6; NaH2PO4.1.3; NaHCO3 16.3; and glucose 7.7. The smooth muscle strips were maintained at or about 37.5° C. in tissue chambers and allowed to equilibrate with the bathing solution for one hour before proceeding with the experiment. […]

For a further series, the system named is memory. Briefly: Side effects concerning memory functions, T-shaped maze in conscious rats. The settings on record: for Effect on memory: naive rats. The format is in vivo. How it is done:
. Side effects concerning memory functions. Methods:
Conscious rats are used. The animals are placed at the base of a T-shaped maze with a reward placed in one of the arms of the maze. After the animals have learned where the reward is located, said reward is removed and it is investigated how long time it takes in the maze before the rats no longer selected the arm of the maze where the reward had been located. Experiments were also performed in rats that had been pretreated with phenylephrine to increase the permeability of the blood-brain barrier. Control groups of animals were treated with placebo (vehicle only) or with oxybutynin.

Setting [2] is: male guinea pig urinary bladder strips.

Read-outs that look alike come from different tables or passages of the source.

Regarding `CCN(CC)CC#CCOC(=O)C(O)(c1ccccc1)C1CCCCC1` (centres unmarked) [Oxybutynin], in series [1] (setting [2]), the Kb was 1.5 to 5.5 nM. The Effect on memory entry in the series with memory (T-shaped maze) was “memory is impaired”.

In the case of `Cc1ccc(O)c([C@H](CCN(C(C)C)C(C)C)c2ccccc2)c1` [Tolterodine], in series [1], the Kb is 1.5 to 5.5 nM.

For `O=C(OC1CC2CCC(C1)[N+]21CCCC1)C(O)(c1ccccc1)c1ccccc1` (centres unmarked) [Trospium, azoniaspiro (3[…]-benziloyl-oxynortro-pane-8,1′-pyrrolidine) chloride], in series [1], the Kb was in the range of 1.5 to 5.5 nM. Also, the Effect on memory entry in the series on memory (T-shaped maze) is listed as “does not influence the memory”. For the same compound, the “Effect on memory after phenylephrine pretreatment” value in the series with memory (rats pretreated with phenylephrine to increase blood-brain barrier permeability) is given as “did not uncover any impairment of memory”. Besides, the “Aggravation of existing memory impairment” value in the series with memory (rats with memory disorder induced by oxybutynin, T-shaped maze) is given as “no further aggravation of memory impairment”.

As for `CC(CC(c1ccccc1)c1ccccc1)NC(C)(C)C` (centres unmarked) [terodiline], the Kb in series [1] (setting [2]) is 1.5 to 5.5 nM.

The values are drawn from patent US7390816B2, “Methods for treating urinary incontinence in patients suffering from memory disorders” (Bridge Pharma, Inc., priority 2005, dated 2008).
